The series is described as follows: Assay 2. Stability in Simulated Intestinal Fluid (SIF). Type of series: in vitro ADME. As to conditions: 1 μM, 37° C., SIF pH 6.7 with pancreatin. Here is the method:
Assay 2. Stability of acylated active agents in Simulated Intestinal Fluid (SIF). This assay was used to assess the stability of an acylated active agent in a small intestine.
Phosphate buffer was prepared by dissolving 0.42 g of sodium hydroxide pellets and 3.95 g of monobasic sodium phosphate monohydrate and 6.19 g of sodium chloride in ultrapure water (MilliQ®, Millipore Sigma, Darmstadt, Germany). The pH was adjusted to 6.7 using aq. HCl and aq. NaOH, as necessary, and the solution was diluted with ultrapure water to produce 1 L of the pH 6.7 buffer.
112 mg FaSSIF powder (Biorelevant™, London, UK) was dissolved in 50 mL of the pH 6.7 buffer. 2 to 3 mL of the resulting solution were then added to 500 mg pancreatin (Millipore Sigma, Darmstadt, Germany). The resulting mixture was agitated by finger tapping the vessel containing the mixture until milky suspension formed. At this time, the remainder of the 50 mL FaSSiF/pH 6.7 buffer solution was added. The resulting suspension was flipped upside down 10 times to produce SIF, which was used fresh.
Test compounds were dissolved in DMSO stock to 1 mM. An aliquot of the DMSO stock solution was removed and diluted in the SIF media in 15 mL falcon tubes to produce a mixture with a tested compound concentration of 1 μM. A 1 mL aliquot was immediately removed and diluted once with 1 volume of acetonitrile for T0 timepoint. The mixture was sealed and agitated at 37° C. in an incubator. Aliquots (1 mL) were removed at regular intervals and immediately quenched by the addition of 1 volume of acetonitrile. The resulting samples were analyzed by LC/MS to determine degradation rates.

For `O=C(CCCc1ccccc1)Oc1ccc(/C=C/c2cc(OC(=O)CCCc3ccccc3)cc(OC(=O)CCCc3ccccc3)c2)cc1` [Compound 2, [4-[(E)-2-[3,5-bis(4-phenylbutanoyloxy)phenyl]vinyl]phenyl] 4-phenylbutanoate], the “Assay 2 (SIF) (% @ Remaining 4 hours)” value is on record as “C (C: >75% of the tested compound remaining)”.
For the compound `CCCC(=O)O[C@@H]1[C@@H](OC(=O)CCC)[C@@H](Oc2ccc(N)cc2C(=O)O)OC[C@@H]1OC(=O)CCC` [Compound 42, 5-amino-2-[(2R,3R,4S,5S)-3,4,5-tri(butanoyloxy)tetrahydropyran-2-yl]oxy-benzoic Acid], the “Assay 2 (SIF) (% @ Remaining 4 hours)” value is “C (C: >75% of the tested compound remaining)”.
Take `CCCC(=O)O[C@H]1O[C@@H](C)[C@H](OC(=O)CCC)[C@@H](OC(=O)CCC)[C@H]1OC(=O)CCC` [Compound 151, (2R,3R,4R,5S,6S)-3,4,5-tris(butanoyloxy)-6-methyloxan-2-yl Butanoate]: the “Assay 2 (SIF) (% @ Remaining 4 hours)” value is recorded as “A (A: <25% of the tested compound remaining)”.
In the case of `CCCC(=O)O[C@@H]1O[C@@H](C)[C@H](OC(=O)CCC)[C@@H](OC(=O)CCC)[C@H]1OC(=O)CCC` [Compound 152, (2S,3R,4R,5S,6S)-3,4,5-tris(butanoyloxy)-6-methyloxan-2-yl Butanoate], the “Assay 2 (SIF) (% @ Remaining 4 hours)” value was “A (A: <25% of the tested compound remaining)”.
On to `C[C@@H]1O[C@H](OC(=O)Cc2c[nH]c3ccccc23)[C@H](OC(=O)Cc2c[nH]c3ccccc23)[C@H](OC(=O)Cc2c[nH]c3ccccc23)[C@H]1OC(=O)Cc1c[nH]c2ccccc12` [Compound 153, (2R,3R,4R,5S,6S)-3,4,5-tris({[2-(1H-indol-3-yl)acetyl]oxy})-6-methyloxan-2-yl 2-(1H-indol-3-yl)acetate], for which the “Assay 2 (SIF) (% @ Remaining 4 hours)” value is listed as “A (A: <25% of the tested compound remaining)”.
Turning to `C[C@@H]1O[C@@H](OC(=O)Cc2c[nH]c3ccccc23)[C@H](OC(=O)Cc2c[nH]c3ccccc23)[C@H](OC(=O)Cc2c[nH]c3ccccc23)[C@H]1OC(=O)Cc1c[nH]c2ccccc12` [Compound 154, (2S,3R,4R,5S,6S)-3,4,5-tris({[2-(1H-indol-3-yl)acetyl]oxy})-6-methyloxan-2-yl 2-(1H-indol-3-yl)acetate], the “Assay 2 (SIF) (% @ Remaining 4 hours)” value is given as “A (A: <25% of the tested compound remaining)”.
Take `O=C(Cc1c[nH]c2ccccc12)O[C@@H]1OC[C@@H](OC(=O)Cc2c[nH]c3ccccc23)[C@@H](OC(=O)Cc2c[nH]c3ccccc23)[C@H]1OC(=O)Cc1c[nH]c2ccccc12` [Compound 172, (2S,3R,4R,5R)-3,4,5-tris({[2-(1H-indol-3-yl)acetyl]oxy})oxan-2-yl 2-(1H-indol-3-yl)acetate]: the “Assay 2 (SIF) (% @ Remaining 4 hours)” value is “C (C: >75% of the tested compound remaining)”.
To `CCCC(=O)O[C@H]1OC[C@@H](OC(=O)CCC)[C@H](OC(=O)CCC)[C@H]1OC(=O)CCC` [Compound 191, (2R,3R,4S,5R)-3,4,5-tris(butanoyloxy)oxan-2-yl Butanoate] belongs “C (C: >75% of the tested compound remaining)”.
As for `CCCC(=O)O[C@@H]1[C@@H](OC(=O)CCC)[C@@H](Oc2ccc(N)cc2C(=O)O)OC[C@H]1OC(=O)CCC` [Compound 204, 5-amino-2-[(2R,3R,4S,5R)-3,4,5-tri(butanoyloxy)tetrahydropyran-2-yl]oxy-benzoic Acid], the “Assay 2 (SIF) (% @ Remaining 4 hours)” value is given as “B (B: 25-75% of the tested compound remaining)”.
On to `CCCC(=O)Nc1ccc(O[C@@H]2OC[C@@H](OC(=O)CCC)[C@H](OC(=O)CCC)[C@H]2OC(=O)CCC)c(C(=O)O)c1` [Compound 229, 5-butanamido-2-{[(2S,3R,4S,5R)-3,4,5-tris(butanoyloxy)oxan-2-yl]oxy}benzoic Acid], for which the “Assay 2 (SIF) (% @ Remaining 4 hours)” value is listed as “A (A: <25% of the tested compound remaining)”.
